This test concerns the target human GPR119 (Homo sapiens (Human), UniProt Q8TDV5). The test is described as follows: AlphaScreen cAMP assay in MIN6 cells stably transfected with human GPR119. The test is classed as cell-based. The conditions noted are these: Min-6/hGPR119 cells, 45 min incubation at room temperature. On the procedure: The compounds of formula I according to the invention modulate the activity of the G-protein-coupled receptor GPR119. The effect of the compounds on the activation of GPR119 and on the stimulation of intracellular cAMP concentration is determined using the AlphaScreen cAMP Assay Kit (Cat. No. #6760625R) made by PerkinElmer.
MIN6 cells [Miyazaki J et al. Endocrinology. 1990 July; 127(1):126-32] are stably transfected with an expression vector for human GPR119 cDNA (Acc. No. NP_848566). Min-6/hGPR119 cells are cultured in DMEM, 10% FBS, 50 μM β-mercaptoethanol, 0.3 mg/mL Geniticin, 2 mM GlutaMAX at 37° C. 5% CO2. For the assay, the cells are seeded in Optiplates (white, 384-well, 160W-barcoded, TC, sterile with lid, Cat. No. #6007688 (Perkin Elmer); 10000 cells/well; 50 μl). The plates covered with lids are then incubated for 24 hours at 37° C./5% CO2. After the medium is aspirated from the wells completely, 10 μl of the test compound are added, the compounds are diluted using stimulating buffer (140 mM NaCl, 3.6 mM KCl, 0.5 mM NaH2PO4, 0.5 mM MgSO4, 1.5 mM CaCl2, 10 mM Hepes, 5 mM NaHCO3; pH 7.4. 0.5 mM IBMX and 0.1% BSA, the final DMSO concentration is 1%). After 45 minutes incubation at room temperature (approx. 20° C.), the cAMP concentrations are determined using the AlphaScreen cAMP Assay Kit (Cat. No. #6760625R from PerkinElmer).
In general terms: Alpha assays give light when donor and acceptor beads are brought close together.
Chain of human GPR119 (Q8TDV5 whole entry): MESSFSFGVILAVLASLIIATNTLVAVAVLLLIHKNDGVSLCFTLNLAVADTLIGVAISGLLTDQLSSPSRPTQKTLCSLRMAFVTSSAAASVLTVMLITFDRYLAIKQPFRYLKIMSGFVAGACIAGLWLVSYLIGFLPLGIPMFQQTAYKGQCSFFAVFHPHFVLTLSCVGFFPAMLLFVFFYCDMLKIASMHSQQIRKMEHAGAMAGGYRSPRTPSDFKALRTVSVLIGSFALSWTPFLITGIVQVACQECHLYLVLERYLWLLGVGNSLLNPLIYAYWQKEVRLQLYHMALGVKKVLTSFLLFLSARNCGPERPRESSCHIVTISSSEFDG
As for `Cn1ncnc1-c1ccc(C(=O)N(C2CC2)C2CCN(C(=O)OC(C)(C)C)CC2)cc1` [Example 18, 4-{Cyclopropyl-[4-(2-methyl-2H-[1,2,4]triazol-3-yl)-benzoyl]-amino}-piperidine-1-carboxylic acid tert-butyl ester], the EC50 (in general, the concentration at which the effect is half-maximal) amounted to 1000 nM.

In turn, `C[C@@H]1CN(C(=O)OC(C)(C)C)CC[C@@H]1N(C(=O)c1ccc(-c2cnco2)cc1)C1CC1` (single isomer, unassigned) [Example 46] registered an EC50 of 7 nM.

In the case of `CC(C)(C)OC(=O)N1CCC(N(C(=O)c2ccc(-c3cncs3)cc2)C2CC2)CC1` [Example 6, 4-[Cyclopropyl-(4-thiazol-5-yl-benzoyl)-amino]-piperidine-1-carboxylic acid tert-butyl ester], the response was half-maximal at 32 nM (EC50).

The compound `CC(C)(C)OC(=O)N1CCC(N(C(=O)c2ccc(-n3cnc(-c4ccccc4)c3)cc2)C2CC2)CC1` [Example 56, 4-{Cyclopropyl-[4-(4-phenyl-imidazol-1-yl)-benzoyl]-amino}-piperidine-1-carboxylic acid tert-butyl ester] gave an EC50 of 104 nM.

As for `CC(C)(C)OC(=O)N1CCC(N(C(=O)c2ccc(-n3cccc3)cc2)C2CC2)CC1` [Example 64, 4-[Cyclopropyl-(4-pyrrol-1-yl-benzoyl)-amino]-piperidine-1-carboxylic acid tert-butyl ester], the EC50 came to 278 nM.

`Cn1cnc(-c2ccc(C(=O)N(C3CC3)C3CCN(C(=O)OC(C)(C)C)CC3)cc2)n1` [Example 17, 4-{Cyclopropyl-[4-(1-methyl-1H-[1,2,4]triazol-3-yl)-benzoyl]-amino}-piperidine-1-carboxylic acid tert-butyl ester] yielded an EC50 of 2220 nM.

For the compound `CC(C)(C)OC(=O)N1CCC(N(C(=O)c2ccc(-c3ccc(C(N)=O)cc3)cc2)C2CC2)CC1` [Example 102, 4-[(4′-Carbamoyl-biphenyl-4-carbonyl)-cyclopropyl-amino]-piperidine-1-carboxylic acid tert-butyl ester], the EC50 came to 39 nM.

Consider `O=C(Oc1ccccc1)N1CCC(N(C(=O)c2ccc(-c3cnco3)cc2)C2CC2)CC1` [Example 124, 4-[Cyclopropyl-(4-oxazol-5-yl-benzoyl)-amino]-piperidine-1-carboxylic acid phenyl ester], for which it took 88 nM to reach a half-maximal effect (EC50).

As for `CC(C)(C)OC(=O)N1CC[C@H](N(C(=O)c2ccc(-c3cnco3)cc2)C2CC2)[C@H](F)C1` (single isomer, unassigned) [Example 40], the EC50 is 2 nM.

As to `CC(C)(C)OC(=O)N1CCC(N(C(=O)c2ccc(-c3ccc(CO)cc3)cc2)C2CC2)CC1` [Example 98, 4-[Cyclopropyl-(4′-hydroxymethyl-biphenyl-4-carbonyl)-amino]-piperidine-1-carboxylic acid tert-butyl ester], the EC50 turned out to be 68 nM.

As to `CC(C)(C)OC(=O)N1CCC(N(C(=O)c2ccc(-c3ccnnc3)cc2)C2CC2)CC1` [Example 23, 4-[Cyclopropyl-(4-pyridazin-4-yl-benzoyl)-amino]-piperidine-1-carboxylic acid tert-butyl ester], a half-maximal response (EC50) required 236 nM.

Compound `CC(C)(O)COC(=O)N1CCC(N(C(=O)c2ccc(-c3cnco3)cc2)C2CC2)CC1` [Example 15, 4-[Cyclopropyl-(4-oxazol-5-yl-benzoyl)-amino]-piperidine-1-carboxylic acid 2-hydroxy-2-methyl-propyl ester] showed an EC50 of 4460 nM.

`CC(C)(C)OC(=O)N1CCC(N(C(=O)c2ccc(-c3ccc(O)nc3)cc2)C2CC2)CC1` [Example 108, 4-{Cyclopropyl-[4-(6-hydroxy-pyridin-3-yl)-benzoyl]-amino}-piperidine-1-carboxylic acid tert-butyl ester] yielded an EC50 of 461 nM.

As to `CN(C)C(=O)Nc1nnc(-c2ccc(C(=O)N(C3CC3)C3CCN(C(=O)OC(C)(C)C)CC3)cc2)s1` [Example 76, 4-(Cyclopropyl-{4-[5-(3,3-dimethyl-ureido)-[1,3,4]thiadiazol-2-yl]-benzoyl}-amino)-piperidine-1-carboxylic acid tert-butyl ester], the response was half-maximal at 233 nM (EC50).

Values taken from patent US9469631B2 (Boehringer Ingelheim International GmbH, priority 2012, dated 2016).
